For the assay, the target named is Human cytomegalovirus protease (HHV-5). The experiment in a line: Tested in vitro for its binding affinity against Protease.

From BindingDB's records for doi:10.1016/s0960-894x(02)00294-9 (Glaxosmithkline, 2002) come the findings set out here.

In general, Ki refers to the equilibrium dissociation constant of an inhibitor or competing ligand from its target. Higher therefore signals weaker binding.

SMILES strings stand for the structures.

`C[C@@H]1[C@H](C)[C@@H]1C(=O)N1C(=O)[C@@H](C)[C@@H]2[C@@H]1CCN2C(=O)[C@@H]1CCCN1S(=O)(=O)c1cccc2c(N(C)C)cccc12` [4-[1-(5-dimethylamino-1-naphthylsulfonyl)tetrahydro-1H-2-pyrrolylcarbonyl]-1-(2,3-dimethylcyclopropylcarbonyl)-3-methylperhydropyrrolo[3,2-b]pyrrol-2-one] yielded a Ki of 1.1 µM. This counts as single-digit micromolar.
In the case of `C[C@@H]1C(=O)N(c2nccs2)[C@H]2CCN(C(=O)[C@@H]3CCCN3S(=O)(=O)c3cccc4c(N(C)C)cccc34)[C@H]12` [(3S,3aR,6aS)-4-[(S)-1-(5-Dimethylamino-naphthalene-1-sulfonyl)-pyrrolidine-2-carbonyl]-3-methyl-1-thiazol-2-yl-hexahydro-pyrrolo[3,2-b]pyrrol-2-one] it was 0.4 µM.
